The test system of data set [1] is thymectomised mice. Nature of the data set: Kinetics of the activity in the serum after injection of peptide without carboxymethyl cellulose. Format: in vivo. The conditions noted are these: 1 ng of polypeptide injected into thymectomised mice; active serum dilutions against time; FIGS. 1 to 3. From the text:
These kinetics have also been established for active products, but without any delay action, by way of comparison. The results of these tests have been established in the form of curves in FIGS. 1, 2 and 3 of the accompanying drawings.

Data set [2] deals with cells of the spleen forming rosettes (RFC). Nature of the data set: Rosette test in vitro (thymic activity). Format: cell-based, adult C 57/B1 6 mice. The conditions noted are these: for Activity in the rosette test (control peptides): in vitro, control peptides of similar molecular weight. On the procedure:
The thymic activity of the polypeptide is established by incubation in a hemolysis tube with 3×10^6 cells of the spleen originating from adult C 57/B1 6 mice (supplied by the Centre d'Elevage des Animaux de Laboratoire of C.N.R.S. (45 Orleans, La Source), thymectomised 10 to 20 days previously. The thymectomy method is described by M. Dardenne and J. F. Bach in Immunology, 25, 343 (1973) on page 344. The contents of this article are incorporated herein by reference.
The incubation is carried out for 90 minutes at 37° C. in the presence of azathioprine (Az) at a concentration of 10 μg/ml.
On completion of the incubation, 12×10^6 red cells from sheep's blood (SRBC) are added to the cells in the test specimen. The cells in the specimen are centrifuged for 6 minutes at 200 g and carefully brought gently into suspension by rotation on a roller (diameter 10 cm) at a low speed (10 r.p.m.). The RFC are counted in a hematocytometer.
(1) Activity in vitro in the rosette test.

Data set [3] has as its system rosette-forming cells of the spleen of thymectomised mice. As to the kind of experiment: Test in vivo on the spleen: correction of the reactivity of rosette-forming spleen cells to azathioprine. As to conditions: Table IV, quantity injected 0,1 ng, individual values. On the procedure:
(3) Correction of the abnormal reactivity of the cells forming the rosettes of the spleen with azathioprine in thymectomised mice 24 hours after injecting the peptide (0.1, 1 and 10 ng) bonded to the carboxymethyl cellulose.
The tests on the spleen were carried out by determining the quantity of azathioprine which is necessary for inhibiting the rosette-forming cells of the spleen of thymectomised mice after an established time (24 hours and possibly also 48 hours) after the injection of an established quantity of polypeptide (0.1, 1 or 10 ng).

The subject of data set [4] is thymectomised mice. Nature of the data set: Activity in vivo: study of the serum after injection of peptide absorbed on carboxymethyl cellulose. Here is the method: The peptides active in vitro were also checked in tests carried out in vivo. Injected into 6 weeks old thymectomised mice and used 8 weeks after the thymectomy, the peptides produce the appearance at the 15th minute in the serum of a biological activity conferring the sensitivity to the azothioprine of the spleen cells forming rosettes. […] (2) Activity in vivo (study of the serum 2 hours and 4 hours after injection into thymectomised mice in different quantities (0.1, 1 or 10 ng) of peptide absorbed on carboxymethyl cellulose). The results of the tests in vivo on the serum and on the spleen, set out in Tables II, III and IV, were established by the procedure as previously indicated.

The test system of a further data set is antibodies. Nature of the data set: Bonding with the antibodies. Format: binding. Also noted: key: +: the peptide is bonded; -: is not bonded to the antibodies. From the text:
The suitability of the peptides for being bonded to the antibodies is indicated by the + and - symbols, which respectively signify that the peptide is bonded or is not bonded to the antibodies.

Values after ≈ are worked out from the molar mass of the structure shown. Square brackets hold non-standard residues; d marks the D form. Ends that are not written are not given here. Peptide text beside a SMILES is read from it. pGlu = O=C1CC[C@@H](C(=O)O)N1; βAla = NCCC(=O)O

Turning to `C[C@H](NC(=O)[C@@H]1CCC(=O)N1)C(=O)N[C@@H](CCCCN)C(=O)N[C@@H](CO)C(=O)N[C@@H](CCC(N)=O)C(=O)N[C@H](C)C(=O)NCC(=O)N[C@@H](CO)C(=O)N[C@@H](CC(N)=O)C(=O)O` [Peptide 89, PyroGlu-Ala-Lys-Ser-Gln-D-Ala-Gly-Ser-Asn] ([pGlu]AKSQ[dA]GSN-OH), the “Time of the activity peak in the serum after injection” value with thymectomised mice [1] was ~60 min.

In the case of `Cn1cnc([N+](=O)[O-])c1Sc1ncnc2nc[nH]c12` [azathioprine], the IC50 in data set [2] (Mus musculus, spleen cells coming from normal mice, read-out: minimal concentration of Az inhibiting 50% of the cells of the spleen forming rosettes (RFC)) stood at 1 mg/L (≈ 3.61 µM).

For the compound `C[C@H](NC(=O)[C@@H]1CCC(=O)N1)C(=O)N[C@@H](CCCCN)C(=O)N[C@@H](CO)C(=O)N[C@@H](CCC(N)=O)C(=O)NCC(=O)NCC(=O)N[C@@H](CO)C(=O)NCCC(N)=O` [Peptide 86, PyroGlu-Ala-Lys-Ser-Gln-Gly-Gly-Ser-β-Ala-NH2] ([pGlu]AKSQGGS[βAla]-NH2), the “Spleens (test in vivo) 24 hours after injection: Quantity of azathioprine” value in data set [3] is 12 µg. The Activity in vivo result in the data set with thymectomised mice [4] (Table I, thymectomised mice) is “+ (active)”. The “Active or inactive polypeptide (conclusion from Tables I to IV)” value with thymectomised mice [4] (overall judgement of the tests in vitro and in vivo) is given as “active”. Also, the “Bonding with the antibodies” value in the data set with antibodies (Table I) and in the data set on antibodies (Table IV) was “-” each time. In addition, the Activity in vitro entry in data set [2] (Table I, rosette test) was “+ (active)”. Also, the “Active concentration (ng/ml) (test in vitro)” value in data set [2] (Table III, rosette test, azathioprine 10 μg/ml, 90 minutes at 37° C.) was 7.10^-3 ng/ml.

Take “substance P (RPKPQQFFGLM; ends and bridges not checked; UniProt P20366 58-68, looked up) [control peptide of similar molecular weight]”: the “Activity in the rosette test (control peptides)” value in data set [2] was “inactive”.

With angiotensine, the “Activity in the rosette test (control peptides)” value in data set [2] was “inactive”.

Consider `CC(=O)NCCCC[C@H](NC(=O)[C@H](C)NC(=O)[C@@H]1CCC(=O)N1)C(=O)N[C@@H](CO)C(=O)N[C@@H](CCC(N)=O)C(=O)NCC(=O)NCC(=O)N[C@@H](CO)C(=O)N[C@@H](CC(N)=O)C(=O)O` [Peptide 62, PyroGlu-Ala-Lys(Ac)-Ser-Gln-Gly-Gly-Ser-Asn] ([pGlu]AK(Ac)SQGGSN-OH), for which the “Time of the activity peak in the serum after injection” value in the data set on thymectomised mice [1] is ~45 min.

The record behind these values is patent US4301065A, “Novel polypeptides having thymic activity or an antagonistic activity and processes for their synthesis” (Agence Nationale de Valorisation de la Recherche (ANVAR), priority 1977, dated 1981).
